In the NIST ThermoML archive (doi:10.1016/j.jct.2013.08.031):

Experiment: mn = molality of the nth substance listed, in mol/kg
Details: 74.66 kPa, Liquid, Vibrating tube method

CCCC[N+](CCCC)(C(C)CC)C(C)CC.[Br-] (stereo not given) [N-butyl-N,N-bis(1-methylpropyl)-1-butanaminium bromide] + O
mass density [kg/m3]
Details	m1 = 0.01181	m1 = 0.02026	m1 = 0.03102	m1 = 0.04017	m1 = 0.05043	m1 = 0.0598	m1 = 0.06968	m1 = 0.08191	m1 = 0.09038	m1 = 0.1036
298.15 K	997.635	998.067	998.623	999.106	999.638	1000.14	1000.66	1001.3	1001.76	1002.47
303.15 K	996.234	996.663	997.215	997.699	998.223	998.719	999.241	999.878	1000.33	1001.03
308.15 K	994.634	995.062	995.611	996.096	996.617	997.117	997.631	998.265	998.711	999.421

CCCC[N+](CCCC)(CC(C)C)CC(C)C.[Br-] [N-butyl-N,N-bis(2-methylpropyl)-1-butanaminium bromide] + O
mass density [kg/m3]
Details	m1 = 0.01065	m1 = 0.01998	m1 = 0.0287	m1 = 0.03815	m1 = 0.04991	m1 = 0.05935	m1 = 0.06884	m1 = 0.08078	m1 = 0.0922	m1 = 0.1044
298.15 K	997.571	998.046	998.493	998.971	999.575	1000.05	1000.54	1001.16	1001.72	1002.35
303.15 K	996.173	996.647	997.094	997.573	998.175	998.652	999.131	999.751	1000.31	1000.94
308.15 K	994.575	995.047	995.492	995.975	996.571	997.048	997.529	998.152	998.702	999.327

CC(C)C[N+](CC(C)C)(CC(C)C)CC(C)C.[Br-] [tetra-iso-butyl ammonium bromide] + O
mass density [kg/m3]
Details	m1 = 0.01022	m1 = 0.02021	m1 = 0.02983	m1 = 0.03847	m1 = 0.04829	m1 = 0.05621	m1 = 0.06888	m1 = 0.07666	m1 = 0.08623	m1 = 0.1002
298.15 K	997.574	998.092	998.59	999.027	999.524	999.922	1000.56	1000.96	1001.43	1002.15
303.15 K	996.171	996.676	997.167	997.6	998.101	998.499	999.123	999.518	999.988	1000.7
308.15 K	994.553	995.043	995.531	995.96	996.462	996.855	997.478	997.85	998.324	999.035

CCC(C)[N+](C(C)CC)(C(C)CC)C(C)CC.[Br-] (stereo not given) [tetra-sec-butyl ammonium bromide] + O
mass density [kg/m3]
Details	m1 = 0.0097	m1 = 0.01981	m1 = 0.03014	m1 = 0.04066	m1 = 0.04983	m1 = 0.0598	m1 = 0.07027	m1 = 0.07997	m1 = 0.08984	m1 = 0.1018
298.15 K	997.488	997.958	998.439	998.953	999.408	999.909	1000.44	1000.95	1001.45	1002.08
303.15 K	996.085	996.548	997.029	997.518	997.974	998.449	998.977	999.449	999.971	1000.56
308.15 K	994.477	994.931	995.392	995.891	996.309	996.799	997.293	997.778	998.299	998.923

CCCC[N+](CCCC)(CCCC)CCCC.[Br-] [tetrabutylammonium bromide] + O
mass density [kg/m3]
Details	m1 = 0.01143	m1 = 0.02179	m1 = 0.02564	m1 = 0.03767	m1 = 0.0459	m1 = 0.05855	m1 = 0.0711	m1 = 0.07968	m1 = 0.09066	m1 = 0.1003
298.15 K	997.306	997.542	997.632	997.89	998.083	998.37	998.631	998.818	999.091	999.267
303.15 K	995.897	996.124	996.207	996.459	996.642	996.918	997.168	997.351	997.608	997.806
308.15 K	994.271	994.493	994.567	994.819	994.986	995.247	995.487	995.662	995.912	996.121
